Results reported in US20250361268A1, “NOVEL ANTI-INFLAMMATORY PEPTIDE AND USE THEREOF” (NOVACELL TECHNOLOGY INC., priority 2022, published 2025).
Peptide text beside a SMILES is read from it.

Key:
FPR1 = target: T1, FPR1 (Homo sapiens, UniProt P21462); assay: Change in calcium activity by peptide, FPR1 activation effect; type: cell-based; settings: calcium activity (Fura-2), graded per Table 3, read-out: EC50 for [Ca^2+] FPR1
T1 sequence (P21462 1-350): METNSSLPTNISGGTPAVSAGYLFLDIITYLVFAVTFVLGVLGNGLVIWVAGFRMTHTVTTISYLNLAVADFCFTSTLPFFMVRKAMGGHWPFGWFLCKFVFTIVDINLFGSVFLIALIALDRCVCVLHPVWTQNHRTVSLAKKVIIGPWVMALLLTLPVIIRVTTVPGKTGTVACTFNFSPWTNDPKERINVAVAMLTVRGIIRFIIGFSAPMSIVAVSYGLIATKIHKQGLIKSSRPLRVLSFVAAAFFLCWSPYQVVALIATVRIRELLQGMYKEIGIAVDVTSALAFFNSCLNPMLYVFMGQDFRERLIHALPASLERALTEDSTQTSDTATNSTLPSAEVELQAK
Description: The day before measuring calcium activity, the cells were prepared at 3×10^5 cells per well in a 96-well flat clear bottom black plate (Costar, #3603). The prepared cells were treated with a Fura-2 QBT calcium kit (component A; Molecular Devices, #8197) at the same volume per well. After incubation at 37° C. for 1 hour, the cells were incubated in a dark room at room temperature for 30 minutes. After the Fura-2-treated cells, the prepared peptide, and a dedicated tip were placed at each section of FlexStation 3 Multi-Mode Microplate Reader (Molecular Devices, #Flex3), changes in calcium activity caused by the peptides were measured using SoftMax Pro 7 Software (Molecular Devices, #FLEX3-INSTALL-OS). […]

FPR2 = target: T2, FPR2 (Homo sapiens, UniProt P25090); assay: Change in calcium activity by peptide (Fura-2) in RBL cells overexpressing FPR2; type: cell-based; settings: calcium activity (Fura-2), graded per Table 3, read-out: EC50 for [Ca^2+] FPR2
T2 construct: expressed in transfected cells; host or cells: RBL cells (RBL-FPR2)
T2 sequence (P25090 1-351): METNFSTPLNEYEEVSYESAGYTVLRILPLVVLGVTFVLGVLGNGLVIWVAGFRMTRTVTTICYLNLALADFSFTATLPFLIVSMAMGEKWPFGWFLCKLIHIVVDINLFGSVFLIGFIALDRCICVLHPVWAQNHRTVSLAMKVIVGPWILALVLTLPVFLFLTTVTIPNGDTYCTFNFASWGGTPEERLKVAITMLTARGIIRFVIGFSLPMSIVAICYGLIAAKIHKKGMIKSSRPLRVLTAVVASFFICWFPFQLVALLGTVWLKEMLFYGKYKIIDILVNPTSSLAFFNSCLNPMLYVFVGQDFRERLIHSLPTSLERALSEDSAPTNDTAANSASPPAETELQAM
Description: The present inventors observed changes in calcium ion permeability to confirm whether the immunomodulatory peptide candidates prepared according to one example of the present invention activate the immune function of a living organism. Specifically, the concentration of calcium ions in cells was measured to confirm whether the peptides activate FPR2.
A peptide dissolved in water or 50% DMSO at a concentration of 0.5 mM was prepared by diluting it to an appropriate concentration in HBSS (Sigma, #55037C)+20 mM HEPES buffer.
In this experiment, the cells were cultured in DMEM (Lonza, #BE12-604F) containing 10% fetal bovine serum (FBS) and 1% penicillin-streptomycin under conditions of 37° C. and 5% CO2.
The day before measuring calcium activity, the cells were prepared at 3×10^5 cells per well in a 96-well flat clear bottom black plate (Costar, #3603). The prepared cells were treated with a Fura-2 QBT calcium kit (component A; Molecular Devices, #8197) at the same volume per well. After incubation at 37° C. for 1 hour, the cells were incubated in a dark room at room temperature for 30 minutes. After the Fura-2-treated cells, the prepared peptide, and a dedicated tip were placed at each section of FlexStation 3 Multi-Mode Microplate Reader (Molecular Devices, #Flex3), changes in calcium activity caused by the peptides were measured using SoftMax Pro 7 Software (Molecular Devices, #FLEX3-INSTALL-OS).

Structure (SMILES)	EC50 (FPR1) [nM]	EC50 (FPR2) [nM]
CSCC[C@H](NC(=O)[C@H](Cc1c[nH]cn1)NC(C)=O)C(=O)N[C@@H](CCCNC(=N)N)C(=O)N[C@@H](Cc1ccc(O)cc1)C(=O)N[C@@H](CCCCN)C(=O)N1CCC[C@H]1C(=O)N[C@H](CCSC)C(N)=O [Peptide 59] (HELM PEPTIDE1{[ac].H.M.R.Y.K.P.[dM].[am]}$$$$V2.0)	> 10000	< 10
CSCC[C@H](NC(=O)[C@H](Cc1c[nH]cn1)NC(C)=O)C(=O)N[C@@H](CCCNC(=N)N)C(=O)N[C@@H](Cc1ccc(O)cc1)C(=O)N[C@@H](Cc1c[nH]c2ccccc12)C(=O)N[C@@H](Cc1ccc(O)cc1)C(=O)N[C@H](CCSC)C(N)=O [Peptide 92] (HELM PEPTIDE1{[ac].H.M.R.Y.W.Y.[dM].[am]}$$$$V2.0)	> 10000	< 10
CCCCCCCC(=O)N[C@@H](Cc1c[nH]cn1)C(=O)N[C@@H](CCSC)C(=O)N[C@@H](CCCNC(=N)N)C(=O)N[C@@H](Cc1ccc(O)cc1)C(=O)N[C@@H](CCCCN)C(=O)N1CCC[C@H]1C(=O)N[C@H](CCSC)C(N)=O [Peptide 61] (HELM PEPTIDE1{[CCCCCCCC(=O)[*:2]].H.M.R.Y.K.P.[dM].[am]}$$$$V2.0)	> 10000	< 10
CSCC[C@@H](NC(=O)[C@H](Cc1ccc(O)cc1)NC(=O)[C@H](CCCCN)NC(=O)[C@H](Cc1ccc(O)cc1)NC(=O)[C@H](CCCCN)NC(=O)[C@H](Cc1c[nH]c2ccccc12)NC(=O)[C@H](CCCCN)NC(C)=O)C(N)=O [Peptide 36] (HELM PEPTIDE1{[ac].K.W.K.Y.K.Y.[dM].[am]}$$$$V2.0)	> 10000	< 10
CCCC(=O)N[C@@H](Cc1c[nH]cn1)C(=O)N[C@@H](CCSC)C(=O)N[C@@H](CCCNC(=N)N)C(=O)N[C@@H](Cc1ccc(O)cc1)C(=O)N[C@@H](CCCCN)C(=O)N1CCC[C@H]1C(=O)N[C@H](CCSC)C(N)=O [Peptide 60] (HELM PEPTIDE1{[CCCC(=O)[*:2]].H.M.R.Y.K.P.[dM].[am]}$$$$V2.0)	> 10000	< 10
CSCC[C@H](NC(=O)[C@@H]1CCCN1C(C)=O)C(=O)N[C@@H](CCCNC(=N)N)C(=O)N[C@@H](Cc1ccc(O)cc1)C(=O)N[C@@H](CCCCN)C(=O)N1CCC[C@H]1C(=O)N[C@H](CCSC)C(N)=O [Peptide 63] (HELM PEPTIDE1{[ac].P.M.R.Y.K.P.[dM].[am]}$$$$V2.0)	> 10000	< 10
CSCC[C@@H](NC(=O)[C@@H](NC(=O)[C@H](Cc1ccc(O)cc1)NC(=O)[C@H](Cc1ccc(O)cc1)NC(=O)[C@H](CCCCN)NC(=O)[C@H](Cc1c[nH]c2ccccc12)NC(=O)[C@@H](N)CCCCN)C(C)C)C(N)=O [Peptide 96] (HELM PEPTIDE1{K.W.K.Y.Y.V.[dM].[am]}$$$$V2.0)	1000 to 10000	< 10
CSCC[C@H](NC(=O)[C@@H]1CCCN1)C(=O)N[C@@H](CCCNC(=N)N)C(=O)N[C@@H](Cc1ccc(O)cc1)C(=O)N[C@@H](CCCCN)C(=O)N1CCC[C@H]1C(=O)N[C@H](CCSC)C(N)=O [Peptide 62] (HELM PEPTIDE1{P.M.R.Y.K.P.[dM].[am]}$$$$V2.0)	> 10000	< 10
CCCCCCCC(=O)N[C@@H](CCSC)C(=O)N[C@@H](CCCNC(=N)N)C(=O)N[C@@H](Cc1ccc(O)cc1)C(=O)N[C@@H](Cc1c[nH]c2ccccc12)C(=O)N[C@@H](Cc1ccc(O)cc1)C(=O)N[C@H](CCSC)C(N)=O [Peptide 88] (HELM PEPTIDE1{[CCCCCCCC(=O)[*:2]].M.R.Y.W.Y.[dM].[am]}$$$$V2.0)	> 10000	11 to 100
CSCC[C@@H](NC(=O)[C@H](Cc1ccc(O)cc1)NC(=O)[C@H](CCCCN)NC(=O)[C@H](Cc1ccc(O)cc1)NC(=O)[C@H](CCCNC(=N)N)NC(=O)[C@H](Cc1c[nH]c2ccccc12)NC(=O)[C@H](CCCNC(=N)N)NC(C)=O)C(N)=O [Peptide 33] (HELM PEPTIDE1{[ac].R.W.R.Y.K.Y.[dM].[am]}$$$$V2.0)	> 10000	< 10
CCCCCCCC(=O)N[C@@H](CCCCN)C(=O)N[C@@H](CCSC)C(=O)N[C@@H](CCCCN)C(=O)N[C@@H](Cc1ccc(O)cc1)C(=O)N[C@@H](CCCCN)C(=O)N[C@H](C(=O)N[C@H](CCSC)C(N)=O)C(C)C [Peptide 12] (HELM PEPTIDE1{[CCCCCCCC(=O)[*:2]].K.M.K.Y.K.V.[dM].[am]}$$$$V2.0)	> 10000	11 to 100
CSCC[C@@H](NC(=O)[C@@H](NC(=O)[C@H](CCCCN)NC(=O)[C@H](Cc1ccc(O)cc1)NC(=O)[C@H](CCCNC(=N)N)NC(=O)[C@@H](N)Cc1c[nH]c2ccccc12)C(C)C)C(N)=O [Peptide 3] (HELM PEPTIDE1{W.R.Y.K.V.[dM].[am]}$$$$V2.0)	> 10000	< 10
CCCC(=O)N[C@@H](CCSC)C(=O)N[C@@H](CCCNC(=N)N)C(=O)N[C@@H](Cc1ccc(O)cc1)C(=O)N[C@@H](Cc1c[nH]c2ccccc12)C(=O)N[C@@H](Cc1ccc(O)cc1)C(=O)N[C@H](CCSC)C(N)=O [Peptide 87] (HELM PEPTIDE1{[CCCC(=O)[*:2]].M.R.Y.W.Y.[dM].[am]}$$$$V2.0)	> 10000	< 10

Second part, the molecule after the results:

EC50 (FPR1) [nM]	EC50 (FPR2) [nM]	Structure (SMILES)
> 10000	11 to 100	CSCC[C@@H](NC(=O)[C@@H](NC(=O)[C@H](CCCNC(=N)N)NC(=O)[C@H](Cc1ccc(O)cc1)NC(=O)[C@H](CCCNC(=N)N)NC(=O)[C@H](Cc1c[nH]c2ccccc12)NC(=O)[C@@H](N)CCCNC(=N)N)[C@@H](C)O)C(N)=O [Peptide 153] (HELM PEPTIDE1{R.W.R.Y.R.T.[dM].[am]}$$$$V2.0)
> 10000	11 to 100	CC[C@H](C)[C@H](NC(=O)[C@H](CCCNC(=N)N)NC(=O)[C@H](Cc1ccc(O)cc1)NC(=O)[C@H](CCCNC(=N)N)NC(=O)[C@H](Cc1c[nH]c2ccccc12)NC(=O)[C@@H](N)CCCNC(=N)N)C(=O)N[C@H](CCSC)C(N)=O [Peptide 152] (HELM PEPTIDE1{R.W.R.Y.R.I.[dM].[am]}$$$$V2.0)
> 10000	< 10	CSCC[C@@H](NC(=O)[C@@H]1CCCN1C(=O)[C@H](CCCCN)NC(=O)[C@H](Cc1ccc(O)cc1)NC(=O)[C@H](CCCCN)NC(=O)[C@H](Cc1c[nH]cn1)NC(C)=O)C(N)=O [Peptide 147] (HELM PEPTIDE1{[ac].H.K.Y.K.P.[dM].[am]}$$$$V2.0)
> 10000	< 10	CC[C@H](C)[C@H](NC(C)=O)C(=O)N[C@@H](CCCCN)C(=O)N[C@@H](Cc1ccc(O)cc1)C(=O)N[C@@H](CCCCN)C(=O)N[C@H](C(=O)N[C@H](CCSC)C(N)=O)C(C)C [Peptide 135] (HELM PEPTIDE1{[ac].I.K.Y.K.V.[dM].[am]}$$$$V2.0)
101 to 1000	< 10	CSCC[C@H](N)C(=O)N[C@@H](CCCNC(=N)N)C(=O)N[C@@H](Cc1ccc(O)cc1)C(=O)N[C@@H](Cc1ccc(O)cc1)C(=O)N1CCC[C@H]1C(=O)N[C@H](CCSC)C(N)=O [Peptide 120] (HELM PEPTIDE1{M.R.Y.Y.P.[dM].[am]}$$$$V2.0)
1000 to 10000	< 10	CSCC[C@H](NC(=O)[C@H](CCCNC(=N)N)NC(C)=O)C(=O)N[C@@H](CCCNC(=N)N)C(=O)N[C@@H](Cc1ccc(O)cc1)C(=O)N[C@@H](Cc1c[nH]c2ccccc12)C(=O)N[C@H](C(=O)N[C@H](CCSC)C(N)=O)C(C)C [Peptide 104] (HELM PEPTIDE1{[ac].R.M.R.Y.W.V.[dM].[am]}$$$$V2.0)
> 10000	< 10	CSCC[C@H](NC(=O)[C@H](CCCNC(=N)N)NC(C)=O)C(=O)N[C@@H](CCCNC(=N)N)C(=O)N[C@@H](Cc1ccc(O)cc1)C(=O)N[C@@H](Cc1ccc(O)cc1)C(=O)N[C@@H](Cc1ccc(O)cc1)C(=O)N[C@H](CCSC)C(N)=O [Peptide 125] (HELM PEPTIDE1{[ac].R.M.R.Y.Y.Y.[dM].[am]}$$$$V2.0)
